Laboratory results from publication PMC5218480 (PLoS ONE, 2017).

System: MV-4-11 cells
Experiment: Gene expression microarray analysis (Affymetrix PrimeView) and GSEA
Format: cell-based, human
Design: RFU PODN (11730768_x_at) / Fold change /veh PODN (11730768_x_at) / RFU LINC00158 (11744669_a_at) / Fold change /veh LINC00158 (11744669_a_at) / RFU DUSP10 (11751237_a_at) / Fold change /veh DUSP10 (11751237_a_at) / RFU ID3 (11757404_x_at) / Fold change /veh ID3 (11757404_x_at) / RFU PLEKHG5 (11737974_s_at) / Fold change /veh PLEKHG5 (11737974_s_at) / RFU LRRC4B (11730491_at) / Fold change /veh LRRC4B (11730491_at) / RFU GIMAP4 (11747438_a_at) / Fold change /veh GIMAP4 (11747438_a_at) / RFU KRT8 (11758183_x_at) / Fold change /veh KRT8 (11758183_x_at) / RFU CNN1 (11734310_a_at) / Fold change /veh CNN1 (11734310_a_at) / RFU VPS37D (11726825_at) / Fold change /veh VPS37D (11726825_at) / RFU C10orf10 (11716522_x_at) / Fold change /veh C10orf10 (11716522_x_at) / RFU KIR2DL2 /// KIR2DL4 /// KIR2DL5A /// KIR2DL5B /// KIR2DS1 /// KIR2DS2 /// KIR2DS3 /// KIR2DS4 /// KIR3DL3 /// KIR3DL3 /// KIR3DS1 (11738374_at) / Fold change /veh KIR2DL2 /// KIR2DL4 /// KIR2DL5A /// KIR2DL5B /// KIR2DS1 /// KIR2DS2 /// KIR2DS3 /// KIR2DS4 /// KIR3DL3 /// KIR3DL3 /// KIR3DS1 (11738374_at) / RFU C1QL1 (11718748_at) / Fold change /veh C1QL1 (11718748_at) / RFU TMPRSS4 (11747572_a_at) / Fold change /veh TMPRSS4 (11747572_a_at) / RFU HAMP (11756126_x_at) / Fold change /veh HAMP (11756126_x_at) / RFU RNFT2 (11725882_a_at) / Fold change /veh RNFT2 (11725882_a_at) / RFU NR4A2 (11747474_a_at) / Fold change /veh NR4A2 (11747474_a_at) / RFU ABCC12 (11746883_a_at) / Fold change /veh ABCC12 (11746883_a_at) / RFU TMEM136 (11760407_x_at) / Fold change /veh TMEM136 (11760407_x_at) / RFU CLDN22 /// WWC2 (11732394_at) / Fold change /veh CLDN22 /// WWC2 (11732394_at) / RFU HLA-DPB1 (11760878_x_at) / Fold change /veh HLA-DPB1 (11760878_x_at) / RFU SPINT1 (11716480_a_at) / Fold change /veh SPINT1 (11716480_a_at) / RFU GAP43 (11754022_s_at) / Fold change /veh GAP43 (11754022_s_at) / RFU A4GNT (11735810_at) / Fold change /veh A4GNT (11735810_at) / RFU PRB3 (11715151_x_at) / Fold change /veh PRB3 (11715151_x_at) / RFU TUBB4B (11761932_at) / Fold change /veh TUBB4B (11761932_at) / RFU CAPN14 (11732068_a_at) / Fold change /veh CAPN14 (11732068_a_at) / RFU TMCC2 (11721928_a_at) / Fold change /veh TMCC2 (11721928_a_at) / RFU IRGQ (11745062_a_at) / Fold change /veh IRGQ (11745062_a_at) / RFU FAM174B (11720279_a_at) / Fold change /veh FAM174B (11720279_a_at) / RFU TMPRSS4 (11748680_a_at) / Fold change /veh TMPRSS4 (11748680_a_at) / RFU FAM212B (11763350_a_at) / Fold change /veh FAM212B (11763350_a_at) / RFU PLEKHG5 (11743358_a_at) / Fold change /veh PLEKHG5 (11743358_a_at) / RFU ZSCAN30 (11745921_a_at) / Fold change /veh ZSCAN30 (11745921_a_at) / RFU CMKLR1 (11741424_a_at) / Fold change /veh CMKLR1 (11741424_a_at) / RFU LOC101060620 /// MAPK8IP1 (11723275_at) / Fold change /veh LOC101060620 /// MAPK8IP1 (11723275_at) / RFU SPTSSB (11747773_x_at) / Fold change /veh SPTSSB (11747773_x_at) / RFU PRSS12 (11739890_at) / Fold change /veh PRSS12 (11739890_at) / RFU BIN1 (11741810_x_at) / Fold change /veh BIN1 (11741810_x_at) / RFU WNT11 (11732464_a_at) / Fold change /veh WNT11 (11732464_a_at) / RFU C10orf10 (11716521_a_at) / Fold change /veh C10orf10 (11716521_a_at) / RFU C5orf56 (11738089_at) / Fold change /veh C5orf56 (11738089_at) / RFU CYB561 (11721691_x_at) / Fold change /veh CYB561 (11721691_x_at) / RFU ANKRD19P (11752326_a_at) / Fold change /veh ANKRD19P (11752326_a_at) / RFU OR2T12 /// OR2T33 /// OR2T8 (11738714_s_at) / Fold change /veh OR2T12 /// OR2T33 /// OR2T8 (11738714_s_at) / RFU VCAN (11748164_a_at) / Fold change /veh VCAN (11748164_a_at) / RFU JSRP1 (11732532_at) / Fold change /veh JSRP1 (11732532_at) / RFU KRTAP10-11 (11738290_x_at) / Fold change /veh KRTAP10-11 (11738290_x_at) / RFU MYO3A (11730013_a_at) / Fold change /veh MYO3A (11730013_a_at) / RFU EBF3 (11725865_a_at) / Fold change /veh EBF3 (11725865_a_at) / RFU CAMK2N1 (11719241_x_at) / Fold change /veh CAMK2N1 (11719241_x_at) / RFU C5orf56 (11738088_a_at) / Fold change /veh C5orf56 (11738088_a_at) / RFU OLFML3 (11715873_a_at) / Fold change /veh OLFML3 (11715873_a_at) / RFU LOC100653217 /// NTM (11731650_a_at) / Fold change /veh LOC100653217 /// NTM (11731650_a_at) / RFU MAPK11 (11762145_a_at) / Fold change /veh MAPK11 (11762145_a_at) / RFU FIZ1 (11724087_x_at) / Fold change /veh FIZ1 (11724087_x_at) / RFU OASL (11726364_x_at) / Fold change /veh OASL (11726364_x_at) / RFU SOX15 (11748057_x_at) / Fold change /veh SOX15 (11748057_x_at) / RFU CD79A (11719716_a_at) / Fold change /veh CD79A (11719716_a_at) / RFU HIST1H1D (11736915_at) / Fold change /veh HIST1H1D (11736915_at) / RFU CASKIN2 (11723855_a_at) / Fold change /veh CASKIN2 (11723855_a_at) / RFU LOC730098 (11760151_x_at) / Fold change /veh LOC730098 (11760151_x_at) / RFU OR4N2 (11742367_at) / Fold change /veh OR4N2 (11742367_at) / RFU PRRT2 (11749266_a_at) / Fold change /veh PRRT2 (11749266_a_at) / RFU SNX32 (11753110_a_at) / Fold change /veh SNX32 (11753110_a_at) / RFU CDHR5 (11726645_a_at) / Fold change /veh CDHR5 (11726645_a_at) / RFU RCAN1 (11760418_a_at) / Fold change /veh RCAN1 (11760418_a_at) / RFU FAM167A (11723789_a_at) / Fold change /veh FAM167A (11723789_a_at) / RFU FAM26E (11764081_at) / Fold change /veh FAM26E (11764081_at) / RFU ISYNA1 (11749810_s_at) / Fold change /veh ISYNA1 (11749810_s_at) / RFU ACY1 (11761880_at) / Fold change /veh ACY1 (11761880_at) / RFU 11764098_at / Fold change /veh 11764098_at / RFU SAMD14 (11745864_x_at) / Fold change /veh SAMD14 (11745864_x_at) / RFU NPB (11741838_a_at) / Fold change /veh NPB (11741838_a_at) / RFU TMPRSS6 (11731388_a_at) / Fold change /veh TMPRSS6 (11731388_a_at) / RFU KRTAP10-2 (11738614_at) / Fold change /veh KRTAP10-2 (11738614_at) / RFU ARHGAP8 /// PRR5-ARHGAP8 (11727945_x_at) / Fold change /veh ARHGAP8 /// PRR5-ARHGAP8 (11727945_x_at) / RFU KRTAP5-7 /// NADSYN1 (11734609_at) / Fold change /veh KRTAP5-7 /// NADSYN1 (11734609_at) / RFU RASL12 (11751679_a_at) / Fold change /veh RASL12 (11751679_a_at) / RFU CDKN2B (11736163_a_at) / Fold change /veh CDKN2B (11736163_a_at) / RFU PRF1 (11729649_at) / Fold change /veh PRF1 (11729649_at) / RFU, ZNF638 /// ZNF638-IT1 / Fold change vs veh, ZNF638 /// ZNF638-IT1 / RFU, PANK3 / Fold change vs veh, PANK3 / RFU, SH3YL1 / Fold change vs veh, SH3YL1 / RFU, ZEB2 / Fold change vs veh, ZEB2 / RFU, NRIP1 / Fold change vs veh, NRIP1 / RFU, PTTG1IP / Fold change vs veh, PTTG1IP / RFU, CAPN2 / Fold change vs veh, CAPN2 / RFU, MED14 / Fold change vs veh, MED14 / RFU, SNORA58 / Fold change vs veh, SNORA58 / RFU, C1orf63 / Fold change vs veh, C1orf63 / RFU, LRRFIP1 / Fold change vs veh, LRRFIP1 / RFU, NDUFAF7 / Fold change vs veh, NDUFAF7 / RFU, SLC12A2 / Fold change vs veh, SLC12A2 / RFU, IBTK / Fold change vs veh, IBTK / RFU, ESF1 / Fold change vs veh, ESF1 / Fold change vs veh, TMEM50B / RFU, TAOK1 / Fold change vs veh, TAOK1 / RFU, ACBD3 / Fold change vs veh, ACBD3 / RFU, TMA16 / Fold change vs veh, TMA16 / RFU, RWDD3 / Fold change vs veh, RWDD3 / RFU, BCAT1 / Fold change vs veh, BCAT1 / RFU, EDEM3 / Fold change vs veh, EDEM3 / RFU, TMEM33 / Fold change vs veh, TMEM33 / RFU, WDR75 / Fold change vs veh, WDR75 / RFU, AHCTF1 / Fold change vs veh, AHCTF1 / RFU, TFRC / Fold change vs veh, TFRC / RFU, ZDHHC17 / Fold change vs veh, ZDHHC17 / RFU, NOM1 / Fold change vs veh, NOM1 / RFU, ARL8B / Fold change vs veh, ARL8B / RFU, ZBTB11 / Fold change vs veh, ZBTB11 / RFU, TAMM41 / Fold change vs veh, TAMM41 / RFU, KIAA1704 /// LOC100996395 / Fold change vs veh, KIAA1704 /// LOC100996395 / RFU, ING1 / Fold change vs veh, ING1 / RFU, TRMT61B / Fold change vs veh, TRMT61B / RFU, FUBP3 / Fold change vs veh, FUBP3 / RFU, TP53 / Fold change vs veh, TP53 / RFU, TNKS2 / Fold change vs veh, TNKS2 / RFU, ZFP14 / Fold change vs veh, ZFP14 / RFU, ACTR2 / Fold change vs veh, ACTR2 / RFU, PPP3R1 / Fold change vs veh, PPP3R1 / RFU, PIK3R1 / Fold change vs veh, PIK3R1 / RFU, HNRNPA1 / Fold change vs veh, HNRNPA1 / RFU, RNF170 / Fold change vs veh, RNF170 / RFU, ZNF28 / Fold change vs veh, ZNF28 / RFU, RNGTT / Fold change vs veh, RNGTT / RFU, OGT / Fold change vs veh, OGT / RFU, BRD1 / Fold change vs veh, BRD1 / RFU, MARS / Fold change vs veh, MARS / RFU, ZNF655 / Fold change vs veh, ZNF655 / RFU, FAHD1 / Fold change vs veh, FAHD1 / RFU, BDP1 / Fold change vs veh, BDP1 / RFU, LRRCC1 / Fold change vs veh, LRRCC1 / RFU, ARID1A / Fold change vs veh, ARID1A / RFU, ZNF146 / Fold change vs veh, ZNF146 / RFU, ZNF330 / Fold change vs veh, ZNF330 / RFU, GPN3 / Fold change vs veh, GPN3 / RFU, C9orf123 / Fold change vs veh, C9orf123 / RFU, N4BP2L2 / Fold change vs veh, N4BP2L2 / RFU, ARFIP1 / Fold change vs veh, ARFIP1 / RFU, FAM179B / Fold change vs veh, FAM179B / RFU, BCL10 / Fold change vs veh, BCL10 / RFU, UHRF1BP1L / Fold change vs veh, UHRF1BP1L / RFU, BET1 / Fold change vs veh, BET1 / RFU, CNOT2 / Fold change vs veh, CNOT2 / RFU, ZNF268 / Fold change vs veh, ZNF268 / Fold change vs veh, ZNF507 / RFU, DGCR2 / Fold change vs veh, DGCR2 / RFU, WDSUB1 / Fold change vs veh, WDSUB1 / Fold change vs veh, HSP90B1 /// MIR3652 / RFU, ADSS / Fold change vs veh, ADSS / RFU, GK / Fold change vs veh, GK / RFU, ZNF148 / Fold change vs veh, ZNF148 / RFU, TAF9 / Fold change vs veh, TAF9 / RFU, SLC1A5 / Fold change vs veh, SLC1A5 / RFU, SLMO2 / Fold change vs veh, SLMO2 / RFU, ABCC4 / Fold change vs veh, ABCC4 / RFU, LOC101060439 /// RAP1B / Fold change vs veh, LOC101060439 /// RAP1B / RFU, RFX7 / Fold change vs veh, RFX7 / RFU, GTPBP10 / Fold change vs veh, GTPBP10 / RFU, CNEP1R1 / Fold change vs veh, CNEP1R1 / RFU, BIVM-ERCC5 /// ERCC5 / Fold change vs veh, BIVM-ERCC5 /// ERCC5 / RFU, ILF3 / Fold change vs veh, ILF3 / RFU 11762660_at / Fold change /veh 11762660_at / RFU VCAN (11757783_s_at) / Fold change /veh VCAN (11757783_s_at) / RFU DDX43 (11728927_at) / Fold change /veh DDX43 (11728927_at) / RFU KRT8 (11758188_x_at) / Fold change /veh KRT8 (11758188_x_at) / RFU NKD1 (11759106_at) / Fold change /veh NKD1 (11759106_at) / RFU SRD5A1 (11742802_a_at) / Fold change /veh SRD5A1 (11742802_a_at) / RFU TPSAB1 /// TPSB2 (11721975_s_at) / Fold change /veh TPSAB1 /// TPSB2 (11721975_s_at) / RFU GSTM3 (11746129_a_at) / Fold change /veh GSTM3 (11746129_a_at) / RFU IL23R (11737362_x_at) / Fold change /veh IL23R (11737362_x_at) / RFU TMEM51 (11727254_a_at) / Fold change /veh TMEM51 (11727254_a_at) / RFU PIWIL2 (11732686_x_at) / Fold change /veh PIWIL2 (11732686_x_at) / RFU ORM1 (11744905_x_at) / Fold change /veh ORM1 (11744905_x_at) / RFU CCDC152 (11743942_at) / Fold change /veh CCDC152 (11743942_at) / RFU ECM1 (11717891_a_at) / Fold change /veh ECM1 (11717891_a_at) / RFU IL23R (11748794_a_at) / Fold change /veh IL23R (11748794_a_at) / RFU TNFAIP8L3 (11732012_x_at) / Fold change /veh TNFAIP8L3 (11732012_x_at) / RFU MBOAT4 (11741988_at) / Fold change /veh MBOAT4 (11741988_at) / RFU 11764193_at / Fold change /veh 11764193_at / RFU TMEM53 (11763286_at) / Fold change /veh TMEM53 (11763286_at) / RFU MAGEB2 (11727129_at) / Fold change /veh MAGEB2 (11727129_at) / RFU TMEM200A (11744735_a_at) / Fold change /veh TMEM200A (11744735_a_at) / RFU CCDC152 (11751479_a_at) / Fold change /veh CCDC152 (11751479_a_at) / RFU FAM211A (11726209_a_at) / Fold change /veh FAM211A (11726209_a_at) / RFU RGS16 (11746705_a_at) / Fold change /veh RGS16 (11746705_a_at) / RFU VCAN (11755009_s_at) / Fold change /veh VCAN (11755009_s_at) / RFU RHOB (11743442_s_at) / Fold change /veh RHOB (11743442_s_at) / RFU RGS16 (11720943_a_at) / Fold change /veh RGS16 (11720943_a_at) / RFU RGS16 (11720944_at) / Fold change /veh RGS16 (11720944_at) / RFU, VPS4B / Fold change vs veh, VPS4B / RFU, CREB1 / Fold change vs veh, CREB1 / RFU, DNAJC13 / Fold change vs veh, DNAJC13 / RFU, GNAQ / Fold change vs veh, GNAQ / RFU, CDK5R1 / Fold change vs veh, CDK5R1 / RFU, ZRANB3 / Fold change vs veh, ZRANB3 / RFU, CUL4A / Fold change vs veh, CUL4A / RFU, CCNY / Fold change vs veh, CCNY / RFU, UFL1 / Fold change vs veh, UFL1 / RFU, COG3 / Fold change vs veh, COG3 / RFU, DIAPH2 / Fold change vs veh, DIAPH2 / RFU, SKA2 / Fold change vs veh, SKA2 / RFU, AFF3 / Fold change vs veh, AFF3 / RFU, LMF1 / Fold change vs veh, LMF1 / RFU, IPO11 / Fold change vs veh, IPO11 / RFU, DFFB / Fold change vs veh, DFFB / RFU, FOXP1 / Fold change vs veh, FOXP1 / RFU, CARD8 / Fold change vs veh, CARD8 / RFU, STRN3 / Fold change vs veh, STRN3 / RFU, ADK / Fold change vs veh, ADK / RFU, RASSF2 / Fold change vs veh, RASSF2 / RFU, WIPF1 / Fold change vs veh, WIPF1 / RFU, LARP1B / Fold change vs veh, LARP1B / RFU, RASA1 / Fold change vs veh, RASA1 / RFU, RB1 / Fold change vs veh, RB1 / RFU, PPFIA1 / Fold change vs veh, PPFIA1 / RFU, MAT2A / Fold change vs veh, MAT2A / RFU, CCT5 / Fold change vs veh, CCT5 / RFU, WDR92 / Fold change vs veh, WDR92 / RFU, CUX1 / Fold change vs veh, CUX1 / RFU, TTC7A / Fold change vs veh, TTC7A / RFU, TMEM135 / Fold change vs veh, TMEM135 / RFU, DEPTOR / Fold change vs veh, DEPTOR / RFU, CPM / Fold change vs veh, CPM / RFU, DNAJB6 / Fold change vs veh, DNAJB6 / RFU, CACNA2D3 / Fold change vs veh, CACNA2D3 / RFU, DTX4 / Fold change vs veh, DTX4 / RFU, TFCP2 / Fold change vs veh, TFCP2 / RFU, GMCL1 /// GMCL1P1 / Fold change vs veh, GMCL1 /// GMCL1P1 / RFU, AEBP2 / Fold change vs veh, AEBP2 / RFU, SNHG1 /// SNORD22 /// SNORD25 /// SNORD26 /// SNORD27 /// SNORD28 /// SNORD29 /// SNORD31 / Fold change vs veh, SNHG1 /// SNORD22 /// SNORD25 /// SNORD26 /// SNORD27 /// SNORD28 /// SNORD29 /// SNORD31 / Fold change (Aza/veh), C12orf56 (ProbeSet 11735607_a_at) / Fold change (ACY-1035/veh), C12orf56 (ProbeSet 11735607_a_at) / Fold change (Aza/veh), FGFR1OP (ProbeSet 11751329_s_at) / Fold change (ACY-1035/veh), FGFR1OP (ProbeSet 11751329_s_at) / Fold change (Aza/veh), VPS36 (ProbeSet 11739960_a_at) / Fold change (ACY-1035/veh), VPS36 (ProbeSet 11739960_a_at) / RFU SYPL1 (11715823_x_at) / Fold change /veh SYPL1 (11715823_x_at) / RFU IGFBP7 (11715501_s_at) / Fold change /veh IGFBP7 (11715501_s_at) / RFU REEP3 (11722064_at) / Fold change /veh REEP3 (11722064_at) / RFU IGLL1 (11728026_x_at) / Fold change /veh IGLL1 (11728026_x_at): dose or concentration left out as unconfirmed
Conditions: ProbeSet 11733108_at; LIST D

## Nc1ccc(-c2cccs2)cc1NC(=O)c1ccc2c(c1)cc(C1CC1)n2CCN1CCOCC1 [ACY-1035]
  Fold change vs veh, GNAQ: 0.91
